Experimental data from ChEMBL document CHEMBL1123561, “Aryl diazo compounds and diazonium salts as potential irreversible probes of the gamma-aminobutyric acid receptor” (J Med Chem, 1987).
One block for each molecule: values may come before it.

How the values were obtained:
[1] = target: GABA-A receptor; anion channel; assay: Inhibition of [3H]GABA binding to Gamma-aminobutyric acid (GABA-A) receptor of rat brain homogenates
[2] = Half-life period was determined at 20 degree Celsius at UV lambdamax nm of 266 (16000); Stable; type: ADME
[3] = target: Gamma-aminobutyric acid receptor subunit gamma-1 (Rattus norvegicus) (UniProt P23574); assay: Inhibition of [3H]GABA binding to Gamma-aminobutyric acid (GABA-A) receptor of rat brain homogenates at 5*10e-4 M
Gamma-aminobutyric acid receptor subunit gamma-1 (Rattus norvegicus), sequence (P23574 whole entry): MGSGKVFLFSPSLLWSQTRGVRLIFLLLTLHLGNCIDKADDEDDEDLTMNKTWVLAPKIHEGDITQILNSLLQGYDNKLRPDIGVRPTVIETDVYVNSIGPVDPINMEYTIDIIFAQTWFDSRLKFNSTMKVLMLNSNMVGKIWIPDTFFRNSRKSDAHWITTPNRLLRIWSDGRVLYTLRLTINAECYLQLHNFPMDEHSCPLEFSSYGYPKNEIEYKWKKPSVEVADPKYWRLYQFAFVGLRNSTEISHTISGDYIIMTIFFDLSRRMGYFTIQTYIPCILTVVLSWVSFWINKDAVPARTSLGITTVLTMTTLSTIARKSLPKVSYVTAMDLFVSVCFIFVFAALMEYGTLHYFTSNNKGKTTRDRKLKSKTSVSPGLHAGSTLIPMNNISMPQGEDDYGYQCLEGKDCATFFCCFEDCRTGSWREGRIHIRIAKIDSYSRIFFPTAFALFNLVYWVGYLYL

[4] = Half-life period was determined at 20 degree Celsius at UV lambdamax nm of 268 (16000); type: ADME
[5] = Half-life period was determined at 20 degree Celsius at UV lambdamax nm of 323 (23000); Stable; type: ADME
[6] = Half-life period was determined at 20 degree Celsius at UV lambdamax nm of 319 (22000); type: ADME
[7] = Half-life period was determined at 20 degree Celsius at UV lambdamax nm of 316 (22000); type: ADME
[8] = target: T1, GABA-A receptor; anion channel (Rattus norvegicus) (UniProt O09028+P15431+P18506+P18508+P19969+P20236+P23574+P23576+P28471+P28473+P30191+P62813+P63079+P63138+Q91ZM7+Q9ES14); assay: Inhibition of [3H]GABA binding to Gamma-aminobutyric acid (GABA-A) receptor isolated from rat brain homogenates at 5*10e-4 M
[9] = Half-life period was determined at 20 degree Centigrade at UV lambdamax nm of 313 (12000); type: ADME
[10] = target: Gamma-aminobutyric acid receptor subunit gamma-1 (Rattus norvegicus, UniProt P23574); assay: Inhibition of [3H]-GABA binding to Gamma-aminobutyric acid (GABA-A) receptor of rat brain homogenates (Unstable)
Gamma-aminobutyric acid receptor subunit gamma-1, sequence (P23574 whole entry): as above

[11] = Half-life period was determined at 20 degree Centigrade at UV lambdamax nm of 299 (8000); type: ADME
[12] = Half-life period was determined at 20 degree Celsius at UV lambdamax nm of 310 (16600); type: ADME
[13] = Half-life period was determined at 20 degree Celsius at UV lambdamax nm of 390 (5900); Stable; type: ADME
[14] = Half-life period was determined at 20 degree Celsius at UV lambdamax nm of 260 (9600), 350 (5000); Stable; type: ADME
[15] = Half-life period was determined at 20 degree Celsius at UV lambdamax nm of 254 (15000), 341 (7800); type: ADME
[16] = Half-life period was determined at 20 degree Celsius at UV lambdamax nm of 255 (14000), 339 (7500); type: ADME
[17] = Half-life period was determined at 20 degree Celsius at UV lambdamax nm of 258 (9800); Stable; type: ADME
[18] = Half-life period was determined at 20 degree Celsius at UV lambdamax nm of 258 (8500); type: ADME
[19] = target: T1, GABA-A receptor; anion channel (Rattus norvegicus); assay: Inhibition of [3H]-GABA binding to Gamma-aminobutyric acid (GABA-A) receptor of rat brain homogenates at 10e-5 M
[20] = Half-life period was determined at 20 degree Celsius at UV lambdamax nm of 257 (14000), 350 (7900)stable; type: ADME
[21] = Half-life period was determined at 20 degree Celsius at UV lambdamax nm of 256 (16000), 349 (9000); type: ADME
[22] = Half-life period was determined at 20 degree Centigrade at UV lambdamax nm of 328; Unstable; type: ADME
[23] = test system: GABA-A receptor; anion channel; assay: Inhibition of [3H]GABA binding to Gamma-aminobutyric acid (GABA-A) receptor of rat brain homogenates (unstable)
[24] = Half-life period was determined at 20 degree Celsius at UV lambdamax nm of 345 (23000); Stable; type: ADME
[25] = Half-life period was determined at 20 degree Celsius at UV lambdamax nm of 304(7800); unstable; type: ADME
[26] = Half-life period was determined at 20 degree Centigrade at UV lambdamax nm of 328 (9000); type: ADME
[27] = Half-life period was determined at 20 degree Celsius at UV lambdamax nm of 321 (6500); type: ADME
[28] = Half-life period was determined at 20 degree Celsius at UV lambdamax nm of 328 (12000); type: ADME
[29] = Half-life period was determined at 20 degree Centigrade at UV lambdamax nm of 306 (24000); type: ADME
[30] = Half-life period was determined at 20 degree Celsius at UV lambdamax nm of 313 (22000); type: ADME
[31] = Half-life period was determined at 20 degree Celsius at UV lambdamax nm of 314 (24000); stable; type: ADME
[32] = Half-life period was determined at 20 degree Celsius at UV lambdamax nm of 348 (44000); Stable; type: ADME
[33] = Half-life period was determined at 20 degree Celsius at UV lambdamax nm of 313 (23000); Stable; type: ADME
[34] = Half-life period was determined at 20 degree Celsius at UV lambdamax nm of 306 (24000); Stable; type: ADME
[35] = Half-life period was determined at 20 degree Celsius at UV lambdamax nm of 346 (44000); Stable; type: ADME

SMILES: N#[N+]c1cccc(S(=O)(=O)[O-])c1
IC50 [1]: 5 µM

SMILES: N#[N+]c1ccc(S(=O)(=O)[O-])cc1
T1/2 [2]: Stable
inhibition [3]: < 50%
half-life [4]: 6 h

SMILES: N#[N+]c1nc(CC(=O)[O-])c[nH]1
T1/2 [5]: Stable
IC50 [1]: 70 µM
half-life [6]: 11 h
half-life [7]: 60 h

inhibition [8]: 20%
SMILES: NCc1ccc[n+]([O-])c1

SMILES: N#[N+]c1nccn1CC(=O)[O-]
half-life [9]: 0.367 h
IC50 [10]: Unstable
half-life [11]: 3 h
half-life [12]: 12 h

inhibition [8]: 0%
SMILES: Nc1ncc[nH]1

SMILES: [N-]=[N+]=C1C=C(S(=O)(=O)O)C=CC1=O
inhibition [8]: 15%
T1/2 [13]: Stable
T1/2 [14]: Stable

half-life [15]: 22 h
IC50 [1]: 10 µM
half-life [16]: 16 h
SMILES: N#[N+]c1cccc2cccc(S(=O)(=O)[O-])c12

SMILES: N#[N+]c1cccc(C(=O)[O-])c1
inhibition [8]: 30%
T1/2 [17]: Stable
half-life [18]: 1.33 h

inhibition [19]: 25%
SMILES: Nc1nc(CC(=O)O)cs1

T1/2 [20]: Stable
IC50 [1]: < 10 µM
half-life [21]: 0.75 h
SMILES: N#[N+]c1ccc2cccc(S(=O)(=O)[O-])c2c1

SMILES: N#[N+]c1ncc(CC(=O)[O-])s1
T1/2 [22]: Unstable
IC50 [23]: Unstable

SMILES: N#[N+]c1cc[n+]([O-])cc1
T1/2 [24]: Stable
T1/2 [25]: Unstable
IC50 [23]: Unstable

inhibition [19]: 30%
SMILES: Nc1nc(CC(=O)O)c[nH]1

inhibition [8]: 20%
SMILES: Nc1nccn1CC(=O)O

SMILES: N#[N+]c1nc(CC(=O)[O-])cs1
half-life [26]: 0.417 h
half-life [27]: 43 h
half-life [28]: 48 h
IC50 [23]: Unstable

SMILES: N#[N+]C1N=CC[N-]1 (stereo not given)
half-life [29]: 48 h
IC50 [1]: 500 µM
half-life [30]: 8 h
T1/2 [31]: Stable

inhibition [8]: < 50%
SMILES: Nc1nc(CC(N)C(=O)O)c[nH]1 (stereo not given)

SMILES: [N-]=[N+]=C1C=CC(=O)C=C1
inhibition [8]: 15%
T1/2 [32]: Stable
T1/2 [33]: Stable

SMILES: [N-]=[N+]=C1C=CC(=O)C(S(=O)(=O)O)=C1
inhibition [8]: 15%
T1/2 [34]: Stable
T1/2 [35]: Stable

inhibition [3]: < 50%
SMILES: Nc1ncc(CC(=O)O)s1
